Here are results for five compounds from US11717531B2, “Preeclampsia” (ASTON UNIVERSITY, priority 2015, dated 2023).

For one assay, the system named is preeclampsia. Conditions: low-dose, started before 16 weeks' gestation, high-risk women; cited from earlier work.
The next assay has as its system miR-122. As to the kind of experiment: qPCR of miR-122 expression in treated HUVEC. The assay is classed as cell-based, human. Conditions: 24 hours. The protocol:
(§1) FIG. 2. MiR-122 and miR-374b are regulated by various agents that regulate sFlt-1 release. HUVEC cells were treated with 10 uM Hemin (A), 2 uM or 20 uM Pravastatin (B) 20 ng/ml VEGF-A (C) or 20 ng/ml VEGF-E (D) for 24 hours. Total RNA of the treated cells was isolated and the expression of miR-122 and miR-374b was measured by quantitative PCR. The relative miR-122 and miR-374b expression was normalized to RNU6.
(§2) FIG. 3. Hmox1 regulates miR-122 and miR-374b expression. HUVEC cells were infected by adenovirus overexpressiong Hmox1 (A) or transfected with siRNA against Hmox1 (B) for 24 hours and the relative expression of miR-122 and miR-374b was measured by qPCR.
(§3) Human umbilical vein endothelial cells (HUVECs) were isolated and cultured in M199 medium as described previously (Bussolati et al, 2001). Experiments were performed on third or fourth passage HUVEC.
(§4) Sample preparation and real-time quantitative PCR was performed as described previously (Cudmore et al., 2007).
In general terms: Real-time PCR tracks product formation cycle by cycle.

The subject of the next assay is miR-374b. As to the kind of experiment: qPCR of miR-374b expression in treated HUVEC. Type of assay: cell-based, human. The following applies: 24 hours. The protocol:
as §1, §2, §3, §4

A further assay relates to miR-152. Nature of the assay: qPCR of miR-152 expression in HUVEC. Type of assay: cell-based, human. The following applies: growth factor 20 ng/ml, 24 hours. The protocol: FIG. 9 Hypoxia, inflammatory cytokine or angiogenic growth factor stimulation increases microRNA-152 expression in endothelial cells and placental explants. Human placental explants was treated with (A) inflammatory cytokine mix (TNF-α, 20 ng/ml, IFN-γ, 20 ng/ml and IL-1β, 2 ng/ml), (B) hypoxia (1% 02) condition or (C) combination of cytokine mix and hypoxia condition and assayed for miR-152 expression using qPCR. Similarly, HUEVC cells were treated with (D) hypoxia (1% 02) condition, VEGF-E (20 ng/ml, E) or FGF-2 (20 ng/ml, F) for 24 hours and used for qPCR analysis of miR-152 expression. Moreover, overexpression of miR-152 inhibited PlGF release, but not the sFlt-1 and sEng in endothelial cells. HUVECs were electroporated with mimic-152 or control mimic-con. After resting for 24 hours, the transfected cells were treated with vehicle or VEGF-E (20 ng/ml) in the conditioned media. […] Data is shown as mean+SEM and analyzed by Student t-test.
Human umbilical vein endothelial cells (HUVECs) were isolated and cultured in M199 medium as described previously (Bussolati et al, 2001). […] Briefly, human placental villus explants were incubated under stimulation of test substances or hypoxia condition and collected for quantitative PCR of miR-152. […]
as §4

The subject of a further assay is sFlt-1. Nature of the assay: sFlt-1 release from HUVEC, ELISA of conditioned media. Type of assay: cell-based, human. The following applies: 24 hours. The protocol:
as §3
Chemically synthesized double-stranded microRNA mimic and single-stranded inhibitor against miR-122 (mi-122 and anti-122) and miR-374b (mi-374b and anti-374b) were purchased from Qiagen and the efficiency was tested by Qpcr (FIG. 6A, B). HUVECs were trypsinized, and 1×10^6 cells were electroporated with ≈0.6 ug mimic-122 or mimic-374b, =3 ug anti-122 or anti-374 or control molecules using electroporation (Amaxa GmbH, Cologne, Germany) as described previously (Cudmore et al., 2007).
Enzyme-linked immunosorbent assay (ELISA) kits for human sFlt-1 was obtained from R&D Systems and performed according to the manufacturer's specifications.
Enzyme-linked immunosorbent assay (ELISA) kits for human sFlt-1, sEng and P1GF were obtained from R&D Systems and performed according to the manufacturer's specifications.
In general terms: An ELISA detects its analyte on a solid surface through an enzyme-linked reagent.

For a further assay, the system named is miR-144. As to the kind of experiment: qPCR of miR-144 expression in treated HUVEC. Type of assay: cell-based, human. Conditions: hemin 10 uM. The protocol:
as §3, §4

For the compound `CC(=O)Oc1ccccc1C(=O)O` [aspirin], the “prevention of PE, severe PE and IUGR” value in the assay on preeclampsia is given as “up to 50%”.
As to `CC[C@H](C)C(=O)O[C@H]1C[C@H](O)C=C2C=C[C@H](C)[C@H](CC[C@@H](O)C[C@@H](O)CC(=O)O)[C@H]21` [pravastatin], the “induction of miR-122 expression” value with miR-122 (pravastatin 2 uM and 20 uM) is given as 3-9 fold. In the assay on miR-374b (pravastatin 2 uM and 20 uM), the “induction of miR-374b expression” value stood at 2.7 fold.
Consider “FGF-2: angiogenic growth factor used at 20 ng/ml”, for which the “elevation of miR-152 expression” value with miR-152 is around 65%.
As for hemin, the “recovery of hemin-reduced sFlt-1 release by VEGF-E stimulation” value in the assay on sFlt-1 (hemin 10 uM plus VEGF-E) is “cannot be recovered”. In addition, the “sFlt-1 release in endothelial cells” value in the assay on sFlt-1 (hemin 10 uM) is reported as “decreased”. Further, the “effect on miR-144 expression” value in the assay with miR-144 is given as “no significant effect”. Further, in the assay on miR-122 (hemin 10 uM), the “increase of miR-122 expression” value worked out at 20 fold. For the same compound, the “increase of miR-374b expression” value in the assay on miR-374b (hemin 10 uM) was 2.7 fold.
Take “vascular endothelial growth factor A [VEGF-A]”: in the assay on miR-122 (growth factor 20 ng/ml), the “decrease of miR-122 expression” value was determined as 47%. In addition, the “reduction of miR-374b expression” value in the assay on miR-374b (growth factor 20 ng/ml) is on record as 20%.
